Measured values reported in PubChem BioAssay (NCI).
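Compound exposure: 48 hours, 5 concentrations, 96-well plates. GI50 = concentration required for 50% inhibition of growth. TGI: total growth inhibition.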

How the values were obtained:
Assay in all cases: NCI anticancer screen, dose series, 48 h
[1] = test system: SK-MEL-2 melanoma
[2] = test system: OVCAR-4 ovarian
[3] = test system: LOX IMVI melanoma
[4] = test system: RXF 393 renal
[5] = test system: OVCAR-8 ovarian
[6] = test system: KM12 colon
[7] = test system: 786-0 renal
[8] = test system: CAKI-1 renal
[9] = test system: BT-549 breast
[10] = test system: UACC-257 melanoma

Compound	GI50 [1]	TGI [1]	GI50 [2]	TGI [2]	GI50 [3]	TGI [3]	GI50 [4]	TGI [4]	GI50 [5]	TGI [5]	GI50 [6]	TGI [6]	GI50 [7]	TGI [7]	GI50 [8]	TGI [8]	GI50 [9]	TGI [9]	GI50 [10]	TGI [10]
CC(C)(/C=C(\C#N)C(=O)N1CCC[C@@H](n2nc(-c3ccc(Oc4ccccc4)cc3F)c3c(N)ncnc32)C1)N1CCN(C2COC2)CC1	10.1 µM	26.2 µM	5.69 µM	20.4 µM	3.37 µM	15.2 µM	2.31 µM	7.66 µM	10.8 µM	34.3 µM	3.34 µM	14 µM	4.12 µM	18.9 µM	6.39 µM	18.8 µM	5.42 µM	18.6 µM	5.58 µM	20.4 µM
CCN1CCN(c2cc(C)c3cc(NC(=O)c4ccc(OC)c(OC)c4)ccc3n2)CC1	> 40.5 µM	> 61.8 µM	11 µM	> 100 µM	9.36 µM	24.3 µM	2.81 µM	> 100 µM	50.7 µM	> 100 µM	3.48 µM	> 86.3 µM	7.12 µM	> 55.3 µM	> 44.6 µM	> 100 µM	> 33 µM	> 100 µM	> 40.4 µM	> 58.9 µM
NNC(=O)CNc1cccc(Br)c1		> 100 µM		> 100 µM		> 100 µM		> 100 µM		> 100 µM		> 100 µM		> 100 µM		> 100 µM		> 100 µM		> 100 µM
O=C(Cc1ccc(F)c(Cl)c1)Nc1cc(C2(C(F)(F)F)CC2)nn1CC1CCCCC1	3.99 µM	13.3 µM	3.27 µM	> 15 µM	4.58 µM	> 15 µM	2.37 µM	10.1 µM	4.96 µM	> 15 µM	3.74 µM	12.3 µM	4.34 µM	> 15 µM	2.93 µM	8.79 µM	3.41 µM	14.7 µM	3.38 µM	11.2 µM
O=C(c1ccco1)c1c(C(F)(F)F)nc2ccc(Cl)cc2[n+]1[O-]	> 100 µM	> 100 µM	> 100 µM	> 100 µM	> 100 µM	> 100 µM	70.3 µM	> 100 µM	> 100 µM	> 100 µM	> 100 µM	> 100 µM	> 100 µM	> 100 µM	26.6 µM	85.8 µM	> 100 µM	> 100 µM	> 100 µM	> 100 µM
CC(=O)ON1CCCC(P(=O)(OCCSC(=O)C(C)(C)C)OCCSC(=O)C(C)(C)C)C1=O (stereo not given)	4.47 µM	40 µM	1.58 µM	26.4 µM	1.22 µM	95.5 µM	0.764 µM	7.02 µM	0.691 µM	> 100 µM	1.21 µM	13.8 µM	1.41 µM	90.4 µM	2.44 µM	> 100 µM	0.979 µM	7.24 µM	6.9 µM	81.1 µM
